Measured values reported in patent US6207399A, “Methods of determining endogenous thrombin potential (ETP) and thrombin substrates for use in said methods” (Hemker; Hendrik Coenraad, priority 1995, dated 2001).
Peptide text beside a SMILES is read from it. * marks the point of attachment. pNA = O=[N+]([O-])c1ccc(N*)cc1

System: thrombin generation in tissue factor triggered plasma
Experiment: Manual determination of thrombin generation in plasma (subsampling method) and calculated prothrombinase activity
Type: biochemical, human
Protocol: Manual determination of thrombin generation in plasma: Extrinsic pathway: To 480 μL defibrinated plasma were added: 172 μL buffer A which contains the substrate at concentrations between 0 to 2000 μM and 20 μL of a 54 μM phospholipid solution (final concentration: 1.5 μM). After incubation of 4 min at 37° C., 24 μL tissue factor (undiluted) was added. Thrombin formation started at zero time by adding 24 μL of a 0.5 M CaCl2 solution (final concentration: 16.67 mM). At regular time intervals of 12 s samples of 10 μL were subsampled as described above. From the amidolytic activities thus obtained, the thrombin generation curve can be drawn. […] Intrinsic pathway: To 480 μL defibrinated plasma were added: 168 μL buffer A which contains the substrate at concentrations between 0 to 1000 μM and 48 μL Actin FS (undiluted). This mixture was intensively mixed and incubated for 4 min at 37° C. Thrombin generation was started at zero time by adding 24 μL of a 0.5 M CaCl2 solution (final concentration: 16.67 mM).
Influence of the substrate on the prothrombinase-complex: With the obtained decay constants and from the curves obtained by the subsampling method we calculated the course of prothrombin conversion and the course of prothrombinase concentration.
Manual determination of thrombin generation in plasma: Extrinsic pathway: To 480 μL defibrinated plasma were added: 172 μL buffer A which contained the substrate at concentrations between 0 to 2000 μM and 20 μL of a 54 μM phospholipid solution (final concentration: 1.5 μM). After incubation for 4 min at 37° C., 24 μL tissue factor (undiluted) was added. Thrombin formation started at zero time by adding 24 μL of a 0.5 M CaCl2 solution (final concentration: 16.67 mM). At regular time intervals of 12 s samples of 10 μL were subsampled as described above. From the amidolytic activities thus obtained, the thrombin generation curve can be drawn.
Influence of the substrate on the prothrombinase-compzex: With the obtained decay constants and from the curves obtained by the subsampling method we calculated the course of prothrombin conversion and the course of prothrombinase concentration.

k2,M : k2 determined by the subsampling method ([S] 200 μM in plasma): 0.234 min⁻¹
k2,M : k2 determined by the subsampling method ([S] 500 μM in plasma): 0.207 min⁻¹
k2,M : k2 determined by the subsampling method ([S] 1000 μM in plasma): 0.199 min⁻¹
influence on the prothrombinase complex / coagulation cascade (calculated from decay constants and manual thrombin generation curves): clearly decreases its concentration
Compound: CC(C)[C@H](N)C(=O)N[C@@H](CCCNC(=N)N)C(=O)Nc1ccc([N+](=O)[O-])cc1.Cl.Cl [2HCl.H-Val-Arg-pNA] (H-Val-Arg-pNA)
